According to patent US6210901A, “Specific binding substances for antibodies and their use for immunoassays or vaccines” (Roche Diagnostics GmbH, priority 1994, dated 2001):

Assays:
[1] = tested on: antibodies which are directed against the core-epitope of the HCV virus; assay: Immunoassay (streptavidin tube, peroxidase/ABTS) with biotinylated peptides; reactivity relative to the natural epitope core2m; type: binding; set-up: key to serum A rel. reactivity / serum B rel. reactivity: ratio to reference antigen core2m at the same concentration; conditions: for pos. control rel. reactivity: positive control serum, relative to core2m at same concentration; for serum A rel. reactivity: positive serum A; for serum B rel. reactivity: positive serum B
Procedure: Procedure for an immunoassay using biotinylated binding substances according to the invention against antibodies which are directed against the core-epitope of the HCV virus.
In the binding substances that were used one or several CO--NH peptide binding groups were replaced according to the invention (core2mI-core2mVI)compared to the natural epitope "core2m".
20 μl serum was placed in each case in streptavidin-coated ES 22 tubes from the Boehringer Mannheim Company (negative serum, positive serum, positive sera A-C). Then 1000 μl peptide solution (core 2m or core 2m I-VII concentration 100 ng/ml in potassium phosphate buffer 40 mmol/l, pH 7.0) was added by pipette and allowed to stand for 60 min in an ES 22 instrument from the Boehringer Mannheim Company. After 60 min incubation the peptide/serum solution is removed by pipette and the tubes are washed with test wash solution: 40 mmol/l potassium phosphate buffer, pH 7.0. Then 1000 μl peroxidase conjugate solution (peroxidase conjugated to an anti Fcγ antibody, 0.5 U/ml) is added by pipette and incubated for a further 60 min. The conjugate solution is removed by pipette and the tube is washed with washing solution. Afterwards 1000 μl ABTS solution (1.9 mmol/l) is added by pipette and it is incubated for a further 60 min. After 60 min incubation the solution is pipetted from the tube into a photometer and measured at 405 nm. […] The reactivities are derived from the measured result of the immunoassay relative to a standard curve.
The relative concentration used of the peptide antigens I-VI was derived from their HPLC integrals. The reactivity of the antigens I-VI was determined relative to the reference antigen core2m at the same concentration.

pancreatin = assay: HCV core2m stress with pancreatin (protease degradation, analytical HPLC); type: in vitro ADME; conditions: for Area after 55 min (HPLC peptide peak) / Area after 125 min (HPLC peptide peak): pancreatin c = 1 mg/ml, 50 μl to 200 μl peptide
Description: The protease stability of a binding substance according to the invention can be determined by exposing it to e.g. pancreatin, a mixture of frequently occurring proteases (including carboxy-peptidase A and B, trypsin, pepsin, chymotrypsin, elastase) or pronase (including aminopeptidase, carboxypeptidase, alkaline and neutral proteinase). The reduced enzymatic degradation of the binding substance can be determined by HPLC analysis of the appearance of peptide fragments over time.
Experimental procedure for core2m digestion with pancreatin.
Firstly core2m solutions were prepared in distilled water at an approximate c=1-3 mg/ml. These solutions were injected into the analytical HPLC (injection volume=40 μl).
These solutions were now diluted such that the area had to be […] when injected again into the HPLC. e.g. Area of the core2m IV solution was 600 000 on the analytical HPLC for an injection volume of 40 μl. Now two parts of this solution are diluted with one part of distilled water.
In each case 200 μl of these adjusted core2m solutions were admixed with 50 μl pancreatin solution (c=1 mg/ml).
A sample of these solutions was injected into the analytical HPLC after 55 min and after 125 min. As a reference a 200 μl sample of each core2m solution was admixed with 50 μl distilled water and injected into the analytical HPLC.
The percentage degradation of the respective peptide can be determined from the areas of the peptide peaks in the analytical HPLC.
Core2m solutions were adjusted to HPLC areas of 400 000 in 40 μl
Pancreatin solution c = 1 mg/ml in H2 O
200 μl of the adjusted core2m solution was allowed to react with 50

Substance: Bi-XUZUPQDVKFP4 QIVGG V [core2mIV]
- pos. control rel. reactivity [1]: 0.370
- serum A rel. reactivity [1]: 0.250
- serum B rel. reactivity [1]: 0.210
- Area after 55 min (HPLC peptide peak) (pancreatin): 3057359
- Area after 125 min (HPLC peptide peak) (pancreatin): 2715127
- % (percentage resistance towards protease degradation) after 55 min (pancreatin; pancreatin): 90%
- % (percentage resistance towards protease degradation) after 125 min (pancreatin; pancreatin): 80%

Substance: Bi-XUZUPQDVKFPGGGQIVI V [core2mI]
- binding of the artificial epitopes (in words) ([1]; modified epitopes, Example 1): bind specifically and selectively
- pos. control rel. reactivity [1]: 1.140
- serum A rel. reactivity [1]: 0.621
- serum B rel. reactivity [1]: 0.959
- Area after 55 min (HPLC peptide peak) (pancreatin): 3252704
- Area after 125 min (HPLC peptide peak) (pancreatin): 2460332
- % (percentage resistance towards protease degradation) after 55 min (pancreatin; pancreatin): 100%
- % (percentage resistance towards protease degradation) after 125 min (pancreatin; pancreatin): 76%

Substance: Bi-XUZUPQDVKFPGGGQIVGGV [core2m, reference compound]
- pos. control rel. reactivity [1]: 1.140
- serum A rel. reactivity [1]: 1.310
- serum B rel. reactivity [1]: 1.170
- Serum C rel. reactivity ([1]; positive serum C): 1.140
- Area after 55 min (HPLC peptide peak) (pancreatin): 0
- Area after 125 min (HPLC peptide peak) (pancreatin): 0
- % (percentage resistance towards protease degradation) after 55 min (pancreatin; pancreatin): 0%
- resistance towards protease degradation (pancreatin; pancreatin, 55 min and 125 min): 0%
- % (percentage resistance towards protease degradation) after 125 min (pancreatin; pancreatin): 0%
